# Assay results from PubChem BioAssay AID1963970 (Molecular Pharmacology Branch, DTP, NCI, 2024).
# Test system: 931267-113-T-J1-PDC multicell spheroid viability
# Test: Anticancer human tumor 931267-113-T-J1-PDC patient-derived colon adenocarcinoma cell line growth inhibition [PI3K]
# Settings: for viability, T/C: stronger effect = lower value
# Method in brief: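 Three cell types, namely tumor cells, endothelial cells and mesenchymal stem cells, formed each spheroid. Combinations with four PI3K inhibitors were screened at clinically achievable concentrations decreasing by half-log, and spheroid viability was recorded.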
# [1] = curve of first compound, second compound 0.0316 µM
# [2] = curve of first compound, second compound 0.1 µM
# [3] = curve of first compound, second compound 0.316 µM
# [4] = curve of first compound, second compound 1 µM
# [5] = second compound 0.0316 µM, first compound 0.0316 µM
# [6] = second compound 0.0316 µM, first compound 0.1 µM
# [7] = second compound 0.0316 µM, first compound 0.316 µM
# [8] = second compound 0.0316 µM, first compound 1 µM
# [9] = second compound 0.0316 µM, first compound 3.16 µM
# [10] = second compound 0.0316 µM, first compound 10 µM
# [11] = second compound 0.1 µM, first compound 0.0316 µM
# [12] = second compound 0.1 µM, first compound 0.1 µM
# [13] = second compound 0.1 µM, first compound 0.316 µM
# [14] = second compound 0.1 µM, first compound 1 µM
# [15] = second compound 0.1 µM, first compound 3.16 µM
# [16] = second compound 0.1 µM, first compound 10 µM
# [17] = second compound 0.316 µM, first compound 0.0316 µM
# [18] = second compound 0.316 µM, first compound 0.1 µM
# [19] = second compound 0.316 µM, first compound 0.316 µM
# [20] = second compound 0.316 µM, first compound 1 µM
# [21] = second compound 0.316 µM, first compound 3.16 µM
# [22] = second compound 0.316 µM, first compound 10 µM
# [23] = second compound 1 µM, first compound 0.0316 µM
# [24] = second compound 1 µM, first compound 0.1 µM
# [25] = second compound 1 µM, first compound 0.316 µM
# [26] = second compound 1 µM, first compound 1 µM
# [27] = second compound 1 µM, first compound 3.16 µM
# [28] = second compound 1 µM, first compound 10 µM
# 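Also: viability read 7 days after compound addition.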
smiles,measurement,setting,value
CC(C)NCC(C(=O)N1CCN(c2ncnc3c2C(C)CC3O)CC1)c1ccc(Cl)cc1 (stereo unspecified) + COc1c(OCCCN2CCOCC2)ccc2c3n(c(=NC(=O)c4cnc(N)nc4)nc12)CCN3,IC50,"curve of first compound, second compound 0.00316 µM",> 10 µM
same,IC50,"curve of first compound, second compound 0.01 µM",> 10 µM
same,IC50,[1],> 10 µM
same,IC50,[2],> 10 µM
same,IC50,[3],< 0.0316 µM
same,IC50,[4],< 0.0316 µM
same,"viability, T/C","second compound 0.00316 µM, first compound 0.0316 µM",94.2%
same,"viability, T/C","second compound 0.00316 µM, first compound 0.1 µM",96.2%
same,"viability, T/C","second compound 0.00316 µM, first compound 0.316 µM",94.3%
same,"viability, T/C","second compound 0.00316 µM, first compound 1 µM",94.7%
same,"viability, T/C","second compound 0.00316 µM, first compound 3.16 µM",95%
same,"viability, T/C","second compound 0.00316 µM, first compound 10 µM",71.1%
same,"viability, T/C","second compound 0.01 µM, first compound 0.0316 µM",96.3%
same,"viability, T/C","second compound 0.01 µM, first compound 0.1 µM",93.7%
same,"viability, T/C","second compound 0.01 µM, first compound 0.316 µM",93.2%
same,"viability, T/C","second compound 0.01 µM, first compound 1 µM",91.2%
same,"viability, T/C","second compound 0.01 µM, first compound 3.16 µM",97.8%
same,"viability, T/C","second compound 0.01 µM, first compound 10 µM",71.4%
same,"viability, T/C",[5],84.9%
same,"viability, T/C",[6],84.9%
same,"viability, T/C",[7],81.8%
same,"viability, T/C",[8],81.6%
same,"viability, T/C",[9],83.3%
same,"viability, T/C",[10],65.8%
same,"viability, T/C",[11],67.8%
same,"viability, T/C",[12],71.1%
same,"viability, T/C",[13],71.6%
same,"viability, T/C",[14],69.7%
same,"viability, T/C",[15],67.5%
same,"viability, T/C",[16],55.7%
same,"viability, T/C",[17],43.6%
same,"viability, T/C",[18],44.8%
same,"viability, T/C",[19],44%
same,"viability, T/C",[20],47.7%
same,"viability, T/C",[21],49.2%
same,"viability, T/C",[22],44.1%
same,"viability, T/C",[23],32.9%
same,"viability, T/C",[24],30.8%
same,"viability, T/C",[25],35.8%
same,"viability, T/C",[26],31%
same,"viability, T/C",[27],42%
same,"viability, T/C",[28],33.3%
Cn1nccc1Nc1nccc(-c2ccn(C(CO)c3ccc(Cl)c(F)c3)c(=O)c2)n1 (stereo unspecified) + CC(Nc1ncnc2nc[nH]c12)c1cc2cccc(Cl)c2c(=O)n1-c1ccccc1,IC50,[1],7.95 µM
same,IC50,[2],7.53 µM
same,IC50,[3],7.72 µM
same,IC50,[4],6.96 µM
same,IC50,"curve of first compound, second compound 3.16 µM",5.22 µM
same,IC50,"curve of first compound, second compound 10 µM",3.03 µM
same,"viability, T/C",[5],105%
same,"viability, T/C",[6],103%
same,"viability, T/C",[7],98.9%
same,"viability, T/C",[8],90.6%
same,"viability, T/C",[9],65.7%
same,"viability, T/C",[10],46.1%
same,"viability, T/C",[11],111%
same,"viability, T/C",[12],109%
same,"viability, T/C",[13],92.7%
same,"viability, T/C",[14],87.5%
same,"viability, T/C",[15],64.6%
same,"viability, T/C",[16],45%
same,"viability, T/C",[17],107%
same,"viability, T/C",[18],113%
same,"viability, T/C",[19],100%
same,"viability, T/C",[20],78.1%
same,"viability, T/C",[21],76.4%
same,"viability, T/C",[22],42.7%
same,"viability, T/C",[23],114%
same,"viability, T/C",[24],109%
same,"viability, T/C",[25],92.6%
same,"viability, T/C",[26],86.2%
same,"viability, T/C",[27],70.3%
same,"viability, T/C",[28],40.4%
same,"viability, T/C","second compound 3.16 µM, first compound 0.0316 µM",109%
same,"viability, T/C","second compound 3.16 µM, first compound 0.1 µM",94.3%
same,"viability, T/C","second compound 3.16 µM, first compound 0.316 µM",87.5%
same,"viability, T/C","second compound 3.16 µM, first compound 1 µM",78%
same,"viability, T/C","second compound 3.16 µM, first compound 3.16 µM",63.3%
same,"viability, T/C","second compound 3.16 µM, first compound 10 µM",35.1%
same,"viability, T/C","second compound 10 µM, first compound 0.0316 µM",88.2%
same,"viability, T/C","second compound 10 µM, first compound 0.1 µM",86.3%
same,"viability, T/C","second compound 10 µM, first compound 0.316 µM",79.6%
same,"viability, T/C","second compound 10 µM, first compound 1 µM",77.4%
same,"viability, T/C","second compound 10 µM, first compound 3.16 µM",48.4%
same,"viability, T/C","second compound 10 µM, first compound 10 µM",27.4%
COc1c(OCCCN2CCOCC2)ccc2c3n(c(=NC(=O)c4cnc(N)nc4)nc12)CCN3,"viability, T/C",compound 0.00316 µM,101% [middle of 8 runs]
same,"viability, T/C",compound 0.01 µM,95.7% [middle of 8 runs]
same,"viability, T/C",compound 0.0316 µM,80.6% [middle of 8 runs]
same,"viability, T/C",compound 0.1 µM,67.6% [middle of 8 runs]
same,"viability, T/C",compound 0.316 µM,51% [middle of 8 runs]
same,"viability, T/C",compound 1 µM,39.6% [middle of 8 runs]
same,IC50,"compound alone, run of 05/09/2023",375 nM [middle of 8 runs]
